Test results published in article PMC4891693, “Discovery of prenylated flavonoids with dual activity against influenza virus and Streptococcus pneumoniae” (Scientific Reports, 2016).
Converted amounts (≈) assume the structure as drawn. “And” between values parts separate entries of the source, which are not always exact repeats. Equal entries are not always repeated. Where two headings read alike, the source gives them in different places.

Assays:
human erythrocytes [1] = tested on: human erythrocytes
[2] = tested on: NA of S. pneumoniae DSM20566 (precipitated bacterial proteins); assay: Hemagglutination (HA)-based NA inhibition assay, bacterial; assay type: biochemical, Streptococcus pneumoniae; conditions: pure compounds; total protein of DSM20566; human erythrocytes; highest tested 100 μM
Text: Inhibition of pneumococcal NAs circumvents hemagglutination.

[3] = molecular target: influenza virus A/WSN/33 NA (Influenza A virus, UniProt P03470); assay: biochemical
influenza virus A/WSN/33 NA, sequence (P03470 whole entry, looked up): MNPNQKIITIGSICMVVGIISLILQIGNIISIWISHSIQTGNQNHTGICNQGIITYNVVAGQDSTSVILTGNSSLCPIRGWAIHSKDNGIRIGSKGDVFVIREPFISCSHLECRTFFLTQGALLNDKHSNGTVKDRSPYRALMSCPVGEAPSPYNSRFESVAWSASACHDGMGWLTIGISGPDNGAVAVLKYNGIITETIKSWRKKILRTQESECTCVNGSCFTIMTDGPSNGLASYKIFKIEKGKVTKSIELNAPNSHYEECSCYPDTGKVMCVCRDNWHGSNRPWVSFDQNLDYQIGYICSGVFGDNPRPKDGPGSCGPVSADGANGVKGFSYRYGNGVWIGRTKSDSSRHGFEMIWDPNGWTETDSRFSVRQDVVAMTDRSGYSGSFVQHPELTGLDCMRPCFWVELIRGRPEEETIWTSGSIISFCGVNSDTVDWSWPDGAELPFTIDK

in vitro [4] = conditions: dog
human erythrocytes [5] = assay: Interference with hemagglutination in the viral HA assay
in vitro [6] = conditions: human
human erythrocytes [7] = tested on: human erythrocytes; remark: listed apart in the source
[8] = tested on: IAV Jena/8178/2009 (8178/09); assay: microbe, parasite or virus in culture; assay type: cell-based, Influenza A virus; conditions: Influenza A virus, MDCK, 48 h; read-out: IC50 of CPE IAV 8178/09
influenza virus A/WSN/33 = assay: microbe, parasite or virus in culture; assay type: cell-based; conditions: WSN, MDCK, read-out: IC50 of CPE assay (A/WSN/33)

Row | Structure (SMILES) | sample concentrations provoking induction of erythrocyte lysis in bacterial HA assay (human erythrocytes [1]; human) | MIC in HA assay against S. pneumoniae DSM20566 [2] | IC50 [3] [µM] | CC50 at 72 h (in vitro [4]) [µM] | sample concentrations provoking prevention of virus-induced hemagglutination in viral HA assay (human erythrocytes [5]) | CC50 at 72 h (in vitro [6]) [µM] | sample concentrations provoking induction of erythrocyte lysis in viral HA assay (human erythrocytes [7]; human) | IC50 [8] [µM] | sample concentrations provoking induction of erythrocyte lysis in bacterial HA assay (human erythrocytes [1]) | sample concentrations provoking induction of erythrocyte lysis in viral HA assay (human erythrocytes [7]) | IC50 (influenza virus A/WSN/33) [µM] | CC50 (in vitro [4]) [µM] | CC50 (in vitro [6]) [µM]
1 | CC(C)=CCC/C(C)=C/Cc1c(O)cc2c(c1O)C(=O)CC(c1ccc(O)c(O)c1)O2 (stereo not drawn) [Compound 25] | 100 µM | 14.3 ± 9.66 µM (≈ 6.07 µg/mL) | 41.4 ± 6.98 | 55.8 ± 4.41 | 31.6 µM | > 100 | 100 or no | – | – | – | – | – | –
2 | CC(C)=CCc1cc(C2CC(=O)c3ccc(O)cc3O2)ccc1O (racemic) [Compound 18, (±)-abyssinone II] | – | – | > 100 | 59.2 ± 15 | no | > 100 | – | 25.9 ± 3.67 | no | no | 11.4 ± 3 | – | –
3 | CC(C)=CCC/C(C)=C/Cc1c(O)cc(O)c2c1OC(c1ccccc1)CC2=O (racemic) [Compound 24, (R,S)-8-geranyl-5,7-dihydroxyflavanone] | 100 µM | 3.16 ± 0.00 µM (≈ 1.24 µg/mL) | > 100 | 60.6 ± 3.81 | 100 µM | > 100 | – | – | – | no | – | – | –
4 | CC(C)=CCc1c(O)cc(O)c2c1O[C@@H](c1ccc(O)cc1)[C@H](O)C2=O (relative stereo) [Compound 23, (2R,3R)-rel-4H-2,3-dihydro-3,5,7-trihydroxy-2-(4-hydroxyphenyl)-8-(3-methyl-2-buten-1-yl)-1-benzopyran-4-one] | – | 31.6 ± 0.00 µM (≈ 11.3 µg/mL) | 27 ± 3.24 | 69 ± 3.56 | no | > 100 | – | 24.7 ± 4.55 | no | no | – | – | –
5 | CC(C)=CCc1c(O)c(CC=C(C)C)c2c(c1O)C(=O)CC(c1cc(O)cc(O)c1)O2 (stereo not drawn) [Compound 29, 2-(3,5-dihydroxyphenyl)-2,3-dihydro-5,7-dihydroxy-6,8-bis(3-methyl-2-buten-1-yl)-4H-1-benzopyran-4-one] | 100 µM | 31.6 ± 0.00 µM (≈ 13.4 µg/mL) | 53.1 ± 17.5 | 34 ± 7.96 | 31.6 to 100 µM | 80.6 ± 2.47 | 100 µM | – | – | – | – | – | –
6 | COc1ccc(C2CC(=O)c3c(cc(O)c(CC=C(C)C)c3O)O2)cc1 (stereo not drawn) [Compound 19] | 31.6 to 100 µM | – | > 100 | 50.5 ± 6.32 | no | > 100 | – | – | – | no | – | – | –
7 | COc1cc(C2CC(=O)c3c(O)cc(O)cc3O2)cc(CC=C(C)C)c1O (stereo not drawn) [Compound 21, 2,3-dihydro-5,7-dihydroxy-2-[4-hydroxy-3-methoxy-5-(3-methyl-2-butenyl)phenyl]-4H-1-benzopyran-4-one] | – | 65.8 ± 37.5 µM (≈ 24.4 µg/mL) | 45.5 ± 6.06 | 64.9 ± 1.28 | no | > 100 | – | – | no | no | – | – | –
8 | CC(C)=CCc1c(O)c(CC=C(C)C)c2c(c1O)C(=O)C(c1ccc(O)cc1O)CO2 (stereo not drawn) [Compound 32, orientanol E] | 31.6 to 100 µM | 10.0 ± 0.00 µM (≈ 4.24 µg/mL) | 26.9 ± 1.85 | 21.4 ± 0.73 | no | 79.6 ± 2.77 | 31.6 to 100 µM | – | – | – | – | – | –
9 | CC(C)=CCc1c(O)cc(CCc2ccccc2)c(CC=C(C)C)c1O [Compound 33, 2,4-bis(3-methyl-2-buten-1-yl)-5-(2-phenylethyl)-1,3-benzenediol] | – | 10.0 ± 0.00 µM (≈ 3.51 µg/mL) | 97.7 ± 0.46 | 33.4 ± 21.4 | no | 41.7 ± 14.6 | – | – | no | no | – | – | –
10 | CC(C)=CCc1c(O)c(CC=C(C)C)c2c(c1O)C(=O)C[C@@H](c1ccc(O)cc1)O2 [Compound 28, 6,8-diprenylnaringenin] | 100 µM | 15.4 ± 10.8 µM (≈ 6.29 µg/mL) | > 100 | 15.8 ± 7.58 | no | 59.1 ± 19.8 | – | – | – | no | – | – | –
11 | CC(C)=CCc1c(O)c(CC=C(C)C)c2occ(-c3ccc(O)c(O)c3)c(=O)c2c1O [Compound 31, 6,8-diprenylorobol] | 100 µM | – | 37.9 ± 14.6 | 20 ± 1.53 | no | 47.1 ± 2.83 | 31.6 to 100 µM | – | – | – | – | – | –
12 | CC(C)=CCc1cc(C2CC(=O)c3c(O)cc(O)cc3O2)ccc1O (stereo not drawn) [Compound 20, 4',5,7-trihydroxy-3'-prenylflavanone] | 100 or no | – | > 100 | 67.9 ± 2.62 | no | > 100 | 100 or no | – | – | – | – | – | –
13 | CC(C)=CCc1c(O)c(CC=C(C)C)c2[nH]c3c(O)cccc3c(=O)c2c1O [Compound 34, atalphylline] | – | 17.2 ± 12.5 µM (≈ 6.53 µg/mL) | > 100 | – | no | – | – | – | no | no | – | 0.63 ± 0.04 | 60.4 ± 16.8
14 | CC1=C[C@H](c2c(O)ccc([C@@H]3CC(=O)c4c(O)cc(O)cc4O3)c2O)[C@@H](C(=O)c2ccc(O)cc2O)[C@H](c2ccc(O)cc2O)C1 [Compound 6, kuwanon L] | 100 µM | 31.6 µM and 31.6 ± 0.00 µM | 37.2 ± 10.6 | – | 31.6 µM | – | 100 µM | – | – | – | – | > 100 | 94.4 ± 4.73
15 | CC(C)=CCC/C(C)=C/Cc1c(O)cc2c(c1O)C(=O)[C@H](O)[C@@H](c1ccc(O)cc1)O2 [Compound 26, bonanniol A] | 100 µM | 10.0 ± 0.00 µM (≈ 4.24 µg/mL) | 63.9 ± 11.1 | 42.2 ± 22.6 | no | 63.2 ± 25.9 | 31.6 to 100 µM | – | – | – | – | – | –
16 | CC(C)=CC[C@]12Oc3cc(O)c([C@H]4C=C(C)C[C@H](c5ccc(O)cc5O)[C@H]4C(=O)c4ccc(O)cc4O)c(O)c3C(=O)[C@@]1(O)Oc1cc(O)ccc12 [Compound 2, sanggenon C] | 31.6 to 100 µM | – | 9.18 ± 1.5 | – | 3.1 to 100 µM | – | 10 to 100 µM | 8.3 ± 0.7 | – | – | – | 51.7 ± 12.2 | 32.6 ± 9.07
17 | COc1cc(C2CC(=O)c3c(cc(O)c(CC=C(C)C)c3O)O2)ccc1O (stereo not drawn) [Compound 22, 2,3-dihydro-5,7-dihydroxy-2-(4-hydroxy-3-methoxyphenyl)-6-(3-methyl-2-buten-1-yl)-4H-1-benzopyran-4-one] | – | 31.6 ± 0.00 µM (≈ 11.7 µg/mL) | > 100 | 63.4 ± 8.31 | no | > 100 | – | – | no | no | – | – | –
18 | COc1cc(C2CC(=O)c3c(O)cc(O)cc3O2)ccc1O (racemic) [Compound 9, (±)-homoeriodictyol] | – | – | – | – | no | – | – | – | no | no | – | – | –
19 | CC(C)=CCC12Oc3cc(O)c(C4=CC5(C)CC(C4)c4ccc(O)cc4O5)c(O)c3C(=O)C1(O)Oc1cc(O)ccc12 (stereo not drawn) [Compound 1, sanggenon B] | 100 µM | 31.6 ± 0.00 µM (≈ 18 µg/mL) | 31.2 ± 10.1 | – | 31.6 µM | – | 100 or no | – | – | – | – | 28.1 ± 7.26 | 32 ± 9.16
20 | CC(C)=CCc1c(O)c(CC=C(C)C)c2occ(-c3ccc(O)cc3)c(=O)c2c1O [Compound 30, 6,8-diprenylgenistein] | 31.6 to 100 µM | 10.0 ± 0.00 µM (≈ 4.06 µg/mL) | 62.5 ± 5.4 | 21.1 ± 0.91 | 10 to 100 µM | 48.8 ± 16 | – | – | – | no | – | – | –
